Measurements as given in patent publication US20220346377A1, “NOVEL COMPOSITIONS” (DSM IP ASSETS B.V., priority 2019, published 2022).

Key:
Type in all cases: cell-based
Candida albicans = assay: Antimicrobial efficacy in analogy to challenge test (NF EN ISO11930), Candida albicans
Description: The antimicrobial efficacy was assessed in analogy to the regulatory challenge test method (NF EN ISO11930). Thus, mixtures of the respective active(s) with physiological serum with 0.85 wt.-% NaCl in the concentrations as outlined below are prepared under sterile conditions. Controls were also prepared under sterile conditions. The control as well as the mixtures were then deposed in 96-deep well plates (1.6 ml/well). […] After the contamination, each well was thoroughly mixed to ensure a homogeneous distribution of microbes. Then each plate was incubated at 22° C. for 24 h. The counting of the (remaining) population is carried out 24 h after contamination. Then, the average log reduction is calculated [−log 10{(value inoculum)/(value sample)}] which is represented in tables 1-5.

Staphylococcus aureus = assay: Antimicrobial efficacy in analogy to challenge test (NF EN ISO11930), Staphylococcus aureus
Description: (§1) The antimicrobial efficacy was assessed in analogy to the regulatory challenge test method (NF EN ISO11930). Thus, mixtures of the respective active(s) with physiological serum with 0.85 wt.-% NaCl in the concentrations as outlined below are prepared under sterile conditions. Controls were also prepared under sterile conditions. The control as well as the mixtures were then deposed in 96-deep well plates (1.6 ml/well). The wells were contaminated with the respective bacterial or the fungal strains at 2.5*10^5 to 5.6*10^5 cfu/ml for the bacteria and 1*10^4 to 2.5*10^4 cfu/ml for the fungi to obtain the initial contamination as outlined below. After the contamination, each well was thoroughly mixed to ensure a homogeneous distribution of microbes. Then each plate was incubated at 22° C. for 24 h. The counting of the (remaining) population is carried out 24 h after contamination. Then, the average log reduction is calculated [−log 10{(value inoculum)/(value sample)}] which is represented in tables 1-5.

Aspergillus brasiliensis = assay: Antimicrobial efficacy in analogy to challenge test (NF EN ISO11930), Aspergillus brasiliensis; conditions: 0.3 wt.-% DBO
Description: as §1

Escherichia coli = assay: Antimicrobial efficacy in analogy to challenge test (NF EN ISO11930), Escherichia coli; conditions: 0.2 wt.-% Sodium Benzoate
Description: as §1

Structure (SMILES): OCCCO [PDO, 1,3-propanediol]
- Log reduction (Candida albicans; 1.0 wt.-% PDO, 24 h): −0.24
- colony count 24 h (Candida albicans; 1.0 wt.-% PDO, inoculum 70000 cfu/ml, 24 h): 40000 cfu/ml

Structure (SMILES): c1ccc2oc(-c3ccc(-c4nc5ccccc5o4)cc3)nc2c1 [DBO, 1,4-di(benzoxazol-2′-yl)benzene]
- synergistic effect on antimicrobial activity (Staphylococcus aureus; DBO with p-Hydroxyacetophenone, conclusion from Table 3): synergistically enhances the antimicrobial activity of p-Hydroxyacetophenone
- Log reduction (Candida albicans; 0.3 wt.-% DBO, 24 h after contamination): −0.51
- colony count 24 h (Candida albicans; 0.3 wt.-% DBO, inoculum 32000 cfu/ml, 22° C., 24 h, physiological serum 0.85 wt.-% NaCl): 10000 cfu/ml
- Log reduction (Aspergillus brasiliensis; 24 h after contamination): −2.05
- colony count 24 h (Aspergillus brasiliensis; inoculum 45000 cfu/ml, 22° C., 24 h): 400 cfu/ml

Structure (SMILES): O=C([O-])c1ccccc1.[Na+] [Sodium Benzoate, sodium benzoate]
- colony count 24 h (Escherichia coli; inoculum 400000 cfu/ml): 1000000 cfu/ml
- Log reduction (Escherichia coli; 24 h): +0.40

Structure (SMILES): CC(=O)c1ccc(O)cc1 [HAP, p-Hydroxyacetophenone]
- colony count 24 h (Staphylococcus aureus; 0.3 wt.-% HAP, inoculum 550000 cfu/ml, 24 h): 70000 cfu/ml
